Laboratory results: article PMC9610897, “Cationic Perylene Antivirals with Aqueous Solubility for Studies In Vivo” (Pharmaceuticals, 2022)
Like-named read-outs stand apart in the source and are kept apart here.

Tests used:
CHIKV = CHIKV cytopathic effect (CPE) inhibition test; type: cell-based, Chikungunya virus (CHIKV, strain Nic); settings: for EC50: Chikungunya virus, 120 h, read-out: Antiviral Activity, EC50 ± SD, CHIKV; for Activity against CHIKV (in words): concentrations studied up to 100 μM
SARS-CoV-2 = SARS-CoV-2 cytopathic effect (CPE) inhibition test; type: cell-based, strain PIK35; settings: for EC50: Severe acute respiratory syndrome coronavirus 2, 120 h, CPE inhibition in Vero cells, 5 days, M ± SD, read-out: Antiviral Activity, EC50 ± SD, SARS-CoV-2; for Activity against SARS-CoV-2 (in words): concentrations studied up to 100 μM
Text: (§1) The green monkey kidney (Vero) cell line originated from WHO Biologicals, Switzerland (10–87), and the Madin-Darby canine kidney (MDCK) cell line was obtained from the American Type Culture Collection (ATCC CCL-34).
(§2) Viruses and strains used in the present work were severe acute respiratory syndrome-related coronavirus 2 (SARS-CoV-2, strain PIK35, GISAID EPI_ISL_428852), Chikungunya virus (CHIKV, strain Nic, GenBank IDs MN271691-2) and influenza A virus (H1N1, strain A/PR/8/34, ATCC VR-95).
The procedure was described previously. In brief, two-fold dilutions of the compounds were prepared in Dulbecco MEM (Chumakov FSC R&D IBP RAS, Russia) and mixed 1:1 with a virus suspension containing 50–200 TCID50 and incubated for 1 h at 37 °C in a CO2 incubator. The final concentration series started from 100 μM. Then, compound-virus mixtures were added to confluent Vero cell monolayers in 2 replicates. After incubation at 37 °C in a CO2-incubator for 5 days, CPE signs (cell death) were assessed via microscope, and 50% effective concentration (EC50) (compound concentration required to decrease CPE by 50%) was calculated using the Karber method.

IAV = IAV virus yield reduction assay; type: cell-based, influenza A virus (H1N1, strain A/PR/8/34); settings: Influenza A virus; virus yield reduction in MDCK cells, MOI 1, 24 h, M ± SD; read-out: Antiviral Activity, EC50 ± SD, IAV
Text: as §1, §2
Compound solutions were prepared in DMSO (20 mg/mL). The compounds were weighed in 2 mg amounts and dissolved in 100 μL of DMSO. Then, a series of 3-fold dilutions was prepared, starting from 300 µg/mL, in a cultural medium. The MDCK cell monolayer was treated with compound dilutions and incubated for 1 h in a CO2 incubator at 37 °C. Untreated cells were used as negative control. Afterward, the virus was added (MOI 1), and cells were incubated for 24 h at 37 °C in a CO2 incubator. After incubation, the culture medium was collected, and viral yields were determined by titration. In brief, a series of 10-fold dilutions (10^−7–10^−1) of viral supernatants were prepared in a cultural medium and applied to daily MDCK cell monolayers. Infected cells were incubated for 72 h at 37 °C in a CO2 incubator. The presence of the virus in the culture supernatants was determined using the hemagglutination assay with a 1% suspension of chicken erythrocytes. Viral titer was calculated according to the Reed-and-Muench method and was expressed as 50% tissue infectious doses (TID50) per 100 μL of volume. Inhibition (%) was calculated by comparison with non-treated cells, and EC50 was calculated from inhibitory curves.

[1] = Cell viability assay in Vero cells (resazurin); type: cell-based; settings: green monkey, 5 d, read-out: Cytotoxicity, CC50 ± SD, Vero
Description: as §1
Two-fold dilutions of the compounds (starting from 100 μM) were prepared in DMEM (Chumakov FSC R&D IBP RAS, Russia) and added to confluent cell monolayers. After 5 days of incubation (37 °C, 5% CO2), the cultural supernatant was substituted with a resazurin solution (25 μg/mL), followed by 4 h incubation (37 °C, 5% CO2). Then, 20 µL of 10% SDS were added to stop the reaction. Fluorescence intensity was measured with Promega GloMax-Multi Detection System (Ex525/Em580–640). Cells treated with dilutions of the compounds and DMSO, but not resazurin, were used to subtract the background fluorescence. All experimental procedures were performed in two replicates. Fluorescence curves were analyzed with Microsoft Excel 2013. 50% Cytotoxic concentrations (CC50) were calculated.

[2] = Cell viability assay in MDCK cells (MTT); type: cell-based, canine; settings: dog, read-out: Cytotoxicity, CC50 ± SD, MDCK
Description: as §1
Compound solutions were prepared in DMSO (20 mg/mL), and then 2-fold dilutions in cultural medium were prepared starting from 1000 μg/mL. One-day MDCK cell monolayers (over 95% confluency) in 96-well plates ([…]) were washed twice with serum-free alpha-MEM (Thermo-Fisher Scientific, USA) and treated with 100 μL of compound dilutions in 2 replicates. The plates were then incubated for 24 h at 37 °C in a CO2 incubator. Cell viability was assessed using the tetrazolium test (MTT, ApplyChem). Optical density was measured on a Wallac 1420 Victor2 microplate reader (Perkin Elmer, Ramsey, MN, USA) at 535 nm, then CC50 values were calculated.

[3] = Solubility in water (photometry); type: physicochemical
Description: The samples were dissolved in DMSO, diluted in series, and photometrically analyzed. The average molar absorption coefficient was calculated from the obtained optical densities of calibration solutions at the absorption maxima. Solubility values were determined as previously described by adding weighed amounts of compounds to distilled water followed by sonication (30 min), centrifugation (12,000 rpm, 10 min), and photometry.

[4] = system: influenza A/California/7/09/MA virus; type: in vivo, BALB/c mice

c1cc2cccc3c4ccc(-c5cn(CCN6CCOCC6)nn5)c5cccc(c(c1)c23)c54 [Compound 2a, 4-(2-(4-(Perylen-3-yl)-1H-1,2,3-triazol-1-yl)ethyl)morpholine]
EC50 (CHIKV; Vero): 0.47 ± 0.16 µM
EC50 (SARS-CoV-2): 11.3 ± 1.8 µM
EC50 (IAV): 20.6 ± 8 µM
CC50 at 5 days [1]: > 100 µM
CC50 at 24 h [2]: > 100 µM

c1cc2cccc3c4ccc(-c5cn(CCCN6CCOCC6)nn5)c5cccc(c(c1)c23)c54 [Compound 2b, 4-(3-(4-(Perylen-3-yl)-1H-1,2,3-triazol-1-yl)propyl)morpholine]
EC50 (CHIKV; Vero): > 100 µM
Activity against CHIKV (in words) (CHIKV): did not demonstrate any activity
EC50 (SARS-CoV-2): > 100 µM
Activity against SARS-CoV-2 (in words) (SARS-CoV-2): did not demonstrate any activity
EC50 (IAV): 62 ± 22 µM
CC50 at 5 days [1]: > 100 µM
CC50 at 24 h [2]: > 100 µM

C[N+]1(CCn2cc(-c3ccc4c5cccc6cccc(c7cccc3c74)c65)nn2)CCOCC1.[I-] [Compound 3a, 4-Methyl-4-(2-(4-(perylen-3-yl)-1H-1,2,3-triazol-1-yl)ethyl)morpholin-4-ium iodide]
EC50 (CHIKV; Vero): 11.3 ± 9 µM
EC50 (SARS-CoV-2): 1.88 ± 0.88 µM
EC50 (IAV): 49 ± 19 µM
CC50 at 5 days [1]: > 100 µM
CC50 at 24 h [2]: > 100 µM
solubility at 30 min ([3]; thermodynamic from solid, distilled water, sonication, centrifugation, photometry): 3.4 mM

CC(C)[Si]1(C(C)C)OC[C@H]2O[C@@H](n3cc(C#Cc4ccc5c6cccc7cccc(c8cccc4c85)c76)c(=O)[nH]c3=O)[C@H](O)[C@@H]2O[Si](C(C)C)(C(C)C)O1 [Compound 5, 3′,5′-O-(Tetraisopropyldisiloxan-1,3-diyl)-5-(perylen-3-ylethynyl)uridine]
EC50 (CHIKV; Vero): 1.17 ± 0.55 µM
EC50 (SARS-CoV-2): > 100 µM
Activity against SARS-CoV-2 (in words) (SARS-CoV-2): did not demonstrate any activity
CC50 at 5 days [1]: > 100 µM

CC(C)[C@H](NC(=O)OC(C)(C)C)C(=O)O[C@@H]1[C@@H]2O[Si](C(C)C)(C(C)C)O[Si](C(C)C)(C(C)C)OC[C@H]2O[C@H]1n1cc(C#Cc2ccc3c4cccc5cccc(c6cccc2c63)c54)c(=O)[nH]c1=O [Compound 6, 2′-O-(N-Boc-L-valinyl)-3′,5′-O-(tetraisopropyldisiloxane-1,3-diyl)-5-(perylen-3-ylethynyl)uridine]
EC50 (CHIKV; Vero): > 100 µM
Activity against CHIKV (in words) (CHIKV): did not demonstrate any activity
EC50 (SARS-CoV-2): > 100 µM
Activity against SARS-CoV-2 (in words) (SARS-CoV-2): did not demonstrate any activity
EC50 (IAV): 31 ± 10 µM
CC50 at 5 days [1]: > 100 µM
CC50 at 24 h [2]: > 100 µM

CC(C)[C@H](NC(=O)OC(C)(C)C)C(=O)O[C@@H]1[C@H](O)[C@@H](CO)O[C@H]1n1cc(C#Cc2ccc3c4cccc5cccc(c6cccc2c63)c54)c(=O)[nH]c1=O [Compound 7, 2′-O-(N-Boc-L-valinyl)-5-(perylen-3-ylethynyl)uridine]
EC50 (CHIKV; Vero): < 0.016 µM
EC50 (SARS-CoV-2): 0.075 ± 0.018 µM
EC50 (IAV): 4.6 ± 1 µM
CC50 at 5 days [1]: 98 ± 17 µM
CC50 at 24 h [2]: 62 ± 24 µM

O=c1nc(NO)ccn1[C@@H]1O[C@H](CO)[C@@H](O)[C@H]1O [NHC, N^4-hydroxycytidine, reference compound]
EC50 (CHIKV; CPE inhibition in Vero cells, 5 days, M ± SD): 9.7 µM
EC50 (SARS-CoV-2): 7.4 µM
CC50 at 5 days [1]: > 100 µM

CCOC(=O)C1=C[C@@H](OC(CC)CC)[C@H](NC(C)=O)[C@@H](N)C1 [Tamiflu, Oseltamivir phosphate, reference compound]
EC50 (IAV): 0.02 µM
CC50 at 24 h [2]: > 100 µM
Average Life Expectancy (M ± SEM) ([4]; 20 mg/kg intragastric, BALB/c mice): 11.4 ± 1.1 days
Protective Index (PI) ([4]; 20 mg/kg intragastric, […]): 56%
Mortality Rate ([4]; mouse, in vivo): 40%
Reduction in body weight (maximum) ([4]; mouse, in vivo): 24.0%

O=c1[nH]c(=O)n([C@@H]2O[C@H](CO)[C@@H](O)[C@@H]2O)cc1C#Cc1ccc2c3cccc4cccc(c5cccc1c52)c43 [aUY11, 5-(Perylen-3-yl)ethynyl-arabino-uridine, reference compound]
Solubility in water (in words) [3]: no solubility
Solubility in Water ([3]; distilled water, sonication, centrifugation, photometry): insoluble
